Like-named read-outs stand apart in the source and are kept apart here.
Assays:
[1] = Microsomal stability assay, mouse liver microsomes (MLM); format: in vitro ADME; conditions: 0.5 mg/mL protein, 1 μM substrate
How it was run: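 Half-life and CLint come from the ln(% remaining)–time slope, with remaining compound quantified by LC-MS/MS after ice-cold solvent quench of timed samples. Incubations used 1 μM test compound and 0.5 mg·mL^−1 human or mouse liver microsomal protein at 37° C.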

[2] = Plasma protein binding assay, mouse plasma (mPPB); format: in vitro ADME; conditions: 5 μM
How it was run: (§1)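 Equilibrium dialysis of 5 μM compound in previously frozen human or mouse plasma against phosphate buffer, 4 h at 37 °C. Both chambers quantified by LC-MS/MS; % free = (1−((PC−PF)/PC))×100.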

[3] = Plasma protein binding assay, human plasma (hPPB); format: in vitro ADME; conditions: 5 μM
How it was run: as §1

[4] = system: BRAF monomers in A375 cells; assay: A375 AlphaLISA SureFire pERK1/2 cellular assay (monomer); format: cell-based; conditions: Homo sapiens, read-out: pERK A375 (1 hr) pIC50 (converted)
How it was run: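 BRAF^V600E A375 melanoma cells seeded at 30,000/well in DMEM with 10% FBS, dosed without medium exchange in a 10-point series from 10 μM at 1/2-log steps, 1 h at 37 °C. Phospho-ERK1/2 (Thr202/Tyr204) measured in lysates by AlphaLISA SureFire; absolute IC50 relative to DMSO control.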

[5] = equilibrium dialysis 4 hours at 37° C.
[6] = equilibrium dialysis 4 hours 37° C.

SMILES | microsomal CLint at 1 μM ([1]; 37° C.) [µL/min/mg] | mPPB (% free) [2, 5] [% free] | hPPB (% free) [3, 5] [% free] | IC50 ([4]; A-375, A375 cells, 1 hr) [nM] | IC50 ([4]; A-375, 1 h) [nM] | microsomal CLint at 1 μM [1] [µL/min/mg] | mPPB (% free) [2, 6] [% free] | hPPB (% free) [3, 6] [% free] | MLM (CLint) ([1]; 37° C.) [µL/min/mg]
O=C1CCc2c(Oc3ccc4c(c3)CC(c3nc(-c5cncc(C(F)(F)F)c5)c[nH]3)CO4)ccnc2N1 (stereo not shown) [Compound 103, 5-[3-[4-[5-(trifluoromethyl)-3-pyridyl]-1H-imidazol-2-yl]chroman-6-yl]oxy-3,4-dihydro-1H-1,8-naphthyridin-2-one] | 4.4 | 0.6 | 0.6 | 389 | – | – | – | – | –
Cc1c[nH]c(-c2cc(Oc3ccc4c(c3)CC(c3nc(-c5ccccc5)c[nH]3)CO4)ccn2)n1 (stereo not shown) [Compound 143, 2-(4-methyl-1H-imidazol-2-yl)-4-[3-(4-phenyl-1H-imidazol-2-yl)chroman-6-yl]oxy-pyridine] | 86.1 | <0.1 | <0.1 | 794 | – | – | – | – | –
COc1csc(-c2c[nH]c(C3COc4ccc(Oc5ccnc6c5CCC(=O)N6)cc4C3)n2)c1 (stereo not shown) [Compound 122, 5-[3-[5-(4-methoxy-2-thienyl)-1H-imidazol-2-yl]chroman-6-yl]oxy-3,4-dihydro-1H-1,8-naphthyridin-2-one] | 70.8 | 0.21 | 0.23 | 288 | – | – | – | – | –
c1ccc(-c2c[nH]c(C3COc4ccc(Oc5ccnc(Nc6ccccn6)c5)cc4C3)n2)cc1 (stereo not shown) [Compound 140, 4-[3-(4-phenyl-1H-imidazol-2-yl)chroman-6-yl]oxy-N-(2-pyridyl)pyridin-2-amine] | 81.1 | 0.2 | <0.1 | 5890 | – | – | – | – | –
Cc1ccc(-c2c[nH]c(C3COc4ccc(Oc5ccnc6c5CCC(=O)N6)cc4C3)n2)s1 (stereo not shown) [Compound 110] | 55.5 | 0.1 | 0.2 | 107 | – | – | – | – | –
O=C(Nc1cc(Oc2ccc3c(c2)CC(c2nc(-c4ccccc4)c[nH]2)CO3)ncn1)C1CC1 (stereo not shown) [Compound 151, N-[6-[3-(4-phenyl-1H-imidazol-2-yl)chroman-6-yl]oxypyrimidin-4-yl]cyclopropanecarboxamide] | 161 | <0.1 | 0.21 | – | 347 | – | – | – | –
O=C1CCc2c(Oc3ccc4c(c3)CN(C(=O)Nc3ccc(C(F)(F)F)cc3)CC4)ccnc2N1 [Compound 47] | – | – | – | 229 | – | 32.5 | 0.3 | 0.7 | –
O=C1CCc2c(Oc3ccc4c(c3)CC(c3nc(-c5ccnc(C(F)F)c5)c[nH]3)CO4)ccnc2N1 (stereo not shown) [Compound 101, 5-[3-[4-[2-(difluoromethyl)-4-pyridyl]-1H-imidazol-2-yl]chroman-6-yl]oxy-3,4-dihydro-1H-1,8-naphthyridin-2-one] | 15.2 | 1.1 | 1.6 | 204 | – | – | – | – | –
O=C(Nc1cc(Oc2ccc3c(c2)CC(c2nc(-c4ccccc4)c[nH]2)CO3)ccn1)C1CC1(F)F (stereo not shown) [Compound 137, 2,2-difluoro-N-[4-[3-(4-phenyl-1H-imidazol-2-yl)chroman-6-yl]oxy-2-pyridyl]cyclopropanecarboxamide] | – | <0.1 | 0.1 | 191 | – | – | – | – | 277
Cc1cc(-c2c[nH]c(C3COc4ccc(Oc5ccnc6c5CCC(=O)N6)cc4C3)n2)n(C2CC2)n1 (stereo not shown) [Compound 114, 5-[3-[4-(2-cyclopropyl-5-methyl-pyrazol-3-yl)-1H-imidazol-2-yl]chroman-6-yl]oxy-3,4-dihydro-1H-1,8-naphthyridin-2-one] | 12.6 | 2.0 | 1.2 | 2570 | – | – | – | – | –
O=C1CCc2c(Oc3ccc4c(c3)CC(c3nc5cc(Cl)ccc5[nH]3)CO4)ccnc2N1 (stereo not shown) [Compound 25] | – | – | – | 115 | – | 48.5 | 1.5 | 0.3 | –
O=C(Cn1cncn1)Nc1cc(Oc2ccc3c(c2)CC(c2nc(-c4ccccc4)c[nH]2)CO3)ccn1 (stereo not shown) [Compound 154] | 95.2 | 0.7 | 0.75 | 97.7 | – | – | – | – | –
O=C1CCc2c(Oc3ccc4c(c3)CC(c3nc(-c5ccnc(C(F)(F)F)c5)c[nH]3)CO4)ccnc2N1 (stereo not shown) [Compound 8, 5-[3-[4-[2-(trifluoromethyl)-4-pyridyl]-1H-imidazol-2-yl]chroman-6-yl]oxy-3,4-dihydro-1H-1,8-naphthyridin-2-one] | – | 1.1 | 1.0 | 316 | – | 13.9 | 1.1 | 1.0 | –
O=C(Nc1cc(Oc2ccc3c(c2)CC(c2nc(-c4ccccc4)c[nH]2)CO3)ccn1)C1CC1 (racemic) [Compound 136] | – | 0.2 | 0.2 | 162 | – | – | – | – | 277
CCc1cc(-c2c[nH]c(C3COc4ccc(Oc5ccnc6c5CCC(=O)N6)cc4C3)n2)n(C)n1 (stereo not shown) [Compound 111] | 26.9 | 1.73 | 1.91 | 537 | – | – | – | – | –
O=C(Nc1cc(Oc2ccc3c(c2)CC(c2nc(-c4ccc(F)cc4)c[nH]2)CO3)ccn1)C1CC1 (stereo not shown) [Compound 155, N-[4-[3-[4-(4-fluorophenyl)-1H-imidazol-2-yl]chroman-6-yl]oxy-2-pyridyl]cyclopropanecarboxamide] | – | 0.1 | 0.1 | 117 | – | – | – | – | 277
O=C1CCc2c(Oc3ccc4c(c3)CC(c3nc(-c5cncc(C(F)F)c5)c[nH]3)CO4)ccnc2N1 (stereo not shown) [Compound 105, 5-[3-[4-[5-(difluoromethyl)-3-pyridyl]-1H-imidazol-2-yl]chroman-6-yl]oxy-3,4-dihydro-1H-1,8-naphthyridin-2-one] | 2.1 | 0.86 | 1.0 | 417 | – | – | – | – | –
CN(C)c1ccc2[nH]c(C3COc4ccc(Oc5ccnc6c5CCC(=O)N6)cc4C3)nc2c1 (stereo not shown) [Compound 26] | – | – | – | 64.6 | – | 89.3 | 1 | 0.7 | –
O=C1CCc2c(Oc3ccc4c(c3)CC(c3nc5cc(C(F)(F)F)ccc5[nH]3)CO4)ccnc2N1 (stereo not shown) [Compound 22, 5-[3-[6-(trifluoromethyl)-1H-benzimidazol-2-yl]chroman-6-yl]oxy-3,4-dihydro-1H-1,8-naphthyridin-2-one] | – | – | – | 20 | – | 25.1 | <0.1 | <0.1 | –
CCc1cc(-c2c[nH]c(C3COc4ccc(Oc5ccnc6c5CCC(=O)N6)cc4C3)n2)ccn1 (stereo not shown) [Compound 118, 5-[3-[4-(2-ethyl-4-pyridyl)-1H-imidazol-2-yl]chroman-6-yl]oxy-3,4-dihydro-1H-1,8-naphthyridin-2-one] | 40 | 1.0 | 1.3 | 631 | – | – | – | – | –

Reference: US12304912B2, “Fused bicyclic RAF inhibitors and methods for use thereof” (Jazz Pharmaceuticals Ireland Limited, priority 2020, dated 2025)
